In ChEMBL document CHEMBL3997786, “Development of Dihydroxyphenyl Sulfonylisoindoline Derivatives as Liver-Targeting Pyruvate Dehydrogenase Kinase Inhibitors” (J Med Chem, 2017):

Experiments:
[1] = target: T1, [Pyruvate dehydrogenase (acetyl-transferring)] kinase isozyme 2, mitochondrial (Homo sapiens, UniProt Q15119); experiment: Inhibition of N-terminal His6-SUMO tagged recombinant human PDK2 using [32P]-gamma-ATP assessed as decrease in incorporation of radioactivity into E1 protein incubated for 2 mins
[2] = target: T1, [Pyruvate dehydrogenase (acetyl-transferring)] kinase isozyme 2, mitochondrial; experiment: Binding affinity to N-terminal His6-SUMO tagged recombinant human PDK2 by isothermal titration calorimetry
[3] = target: T2, [Pyruvate dehydrogenase (acetyl-transferring)] kinase isozyme 1, mitochondrial (Homo sapiens, UniProt Q15118); experiment: Inhibition of recombinant human PDK1 in presence of E1 protein incubated for 10 mins by titration assay
T2 sequence (Q15118 whole entry): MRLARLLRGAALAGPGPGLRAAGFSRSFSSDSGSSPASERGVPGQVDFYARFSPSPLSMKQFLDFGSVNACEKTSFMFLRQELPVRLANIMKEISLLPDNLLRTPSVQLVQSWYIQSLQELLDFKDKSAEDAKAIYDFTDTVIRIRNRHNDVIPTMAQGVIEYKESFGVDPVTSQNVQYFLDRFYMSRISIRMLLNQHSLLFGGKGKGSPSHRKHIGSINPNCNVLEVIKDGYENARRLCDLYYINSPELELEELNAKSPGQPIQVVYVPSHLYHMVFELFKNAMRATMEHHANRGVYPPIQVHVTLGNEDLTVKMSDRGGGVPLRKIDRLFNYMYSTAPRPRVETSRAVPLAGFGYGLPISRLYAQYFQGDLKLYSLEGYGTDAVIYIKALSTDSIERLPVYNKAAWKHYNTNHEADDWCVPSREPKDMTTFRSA

[4] = target: T3, [Pyruvate dehydrogenase (acetyl-transferring)] kinase isozyme 3, mitochondrial (Homo sapiens, UniProt Q15120); experiment: Inhibition of recombinant human PDK3 in presence of E1 protein incubated for 10 mins by titration assay
T3 sequence (Q15120 whole entry): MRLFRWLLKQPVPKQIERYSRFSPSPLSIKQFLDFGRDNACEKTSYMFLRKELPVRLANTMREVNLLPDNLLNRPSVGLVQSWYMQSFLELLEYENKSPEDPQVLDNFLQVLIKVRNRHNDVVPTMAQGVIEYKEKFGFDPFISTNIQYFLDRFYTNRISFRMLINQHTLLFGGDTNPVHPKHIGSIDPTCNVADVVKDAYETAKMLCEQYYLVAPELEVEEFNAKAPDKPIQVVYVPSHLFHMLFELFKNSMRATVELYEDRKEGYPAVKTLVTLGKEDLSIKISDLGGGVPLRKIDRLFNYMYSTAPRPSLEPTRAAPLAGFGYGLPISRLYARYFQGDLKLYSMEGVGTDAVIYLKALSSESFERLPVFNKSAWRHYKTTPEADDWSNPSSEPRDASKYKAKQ

[5] = target: T4, [Pyruvate dehydrogenase (acetyl-transferring)] kinase isozyme 4, mitochondrial (Homo sapiens, UniProt Q16654); experiment: Inhibition of recombinant human PDK4 in presence of E1 protein incubated for 10 mins by titration assay
T4 sequence (Q16654 whole entry): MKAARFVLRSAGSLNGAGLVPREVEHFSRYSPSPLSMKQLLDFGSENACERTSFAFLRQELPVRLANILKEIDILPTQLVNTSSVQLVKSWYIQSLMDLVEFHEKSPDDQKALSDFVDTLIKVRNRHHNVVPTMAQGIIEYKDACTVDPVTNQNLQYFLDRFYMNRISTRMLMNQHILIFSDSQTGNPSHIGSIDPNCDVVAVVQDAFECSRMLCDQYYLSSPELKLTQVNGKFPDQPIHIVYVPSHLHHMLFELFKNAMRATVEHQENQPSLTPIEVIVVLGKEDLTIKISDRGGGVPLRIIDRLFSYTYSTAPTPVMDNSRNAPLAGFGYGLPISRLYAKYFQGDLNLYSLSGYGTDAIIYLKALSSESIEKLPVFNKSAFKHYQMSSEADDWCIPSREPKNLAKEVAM

[6] = target: T2, [Pyruvate dehydrogenase (acetyl-transferring)] kinase isozyme 1, mitochondrial; experiment: Inhibition of recombinant human PDK1 in presence of E1 protein and PDC core E2/E3BP incubated for 10 mins by titration assay
[7] = target: T1, [Pyruvate dehydrogenase (acetyl-transferring)] kinase isozyme 2, mitochondrial; experiment: Inhibition of N-terminal His6-SUMO tagged recombinant human PDK2 in presence of E1 protein and PDC core E2/E3BP incubated for 10 mins by titration assay
[8] = target: T3, [Pyruvate dehydrogenase (acetyl-transferring)] kinase isozyme 3, mitochondrial; experiment: Inhibition of recombinant human PDK3 in presence of E1 protein and PDC core E2/E3BP incubated for 10 mins by titration assay
[9] = target: T4, [Pyruvate dehydrogenase (acetyl-transferring)] kinase isozyme 4, mitochondrial; experiment: Inhibition of recombinant human PDK4 in presence of E1 protein and PDC core E2/E3BP incubated for 10 mins by titration assay
Plasma [10] = experiment: Terminal half life in CD1 mouse plasma at 30 mg/kg, ip by LC-MS/MS analysis; assay type: ADME, organism-based; conditions: in vivo
Plasma [11] = experiment: Cmax in CD1 mouse plasma at 30 mg/kg, ip by LC-MS/MS analysis; assay type: ADME, organism-based; design: dose 30 mg/kg, route intraperitoneal; conditions: in vivo
[12] = Tmax in CD1 mouse plasma at 30 mg/kg, ip by LC-MS/MS analysis; assay type: ADME, organism-based
Plasma [13] = experiment: AUClast in CD1 mouse plasma at 30 mg/kg, ip by LC-MS/MS analysis; assay type: ADME, organism-based; design: dose 30 mg/kg, route intraperitoneal, time 0 - last; conditions: in vivo
Plasma [14] = experiment: Apparent volume of distribution during terminal phase in CD1 mouse plasma at 30 mg/kg, ip by LC-MS/MS analysis; assay type: ADME, organism-based; conditions: in vivo
[15] = Apparent clearance in CD1 mouse plasma at 30 mg/kg, ip by LC-MS/MS analysis; assay type: ADME, organism-based
[16] = Terminal half life in CD1 mouse muscle at 30 mg/kg, ip by LC-MS/MS analysis; assay type: ADME, organism-based, Muscle tissue; conditions: read-out: beta t1/2
[17] = Cmax in CD1 mouse muscle at 30 mg/kg, ip by LC-MS/MS analysis; assay type: ADME, organism-based, Muscle tissue; design: dose 30 mg/kg, route intraperitoneal
[18] = Tmax in CD1 mouse muscle at 30 mg/kg, ip by LC-MS/MS analysis; assay type: ADME, organism-based, Muscle tissue
[19] = AUClast in CD1 mouse muscle at 30 mg/kg, ip by LC-MS/MS analysis; assay type: ADME, organism-based, Muscle tissue; conditions: in vivo
[20] = Apparent clearance in CD1 mouse muscle at 30 mg/kg, ip by LC-MS/MS analysis; assay type: ADME, organism-based, Muscle tissue; conditions: in vivo
[21] = Apparent volume of distribution during terminal phase in CD1 mouse muscle at 30 mg/kg, ip by LC-MS/MS analysis; assay type: ADME, organism-based, Muscle tissue; conditions: in vivo
Liver [22] = experiment: Terminal half life in CD1 mouse liver at 30 mg/kg, ip by LC-MS/MS analysis; assay type: ADME, organism-based; conditions: in vivo
Liver [23] = experiment: Cmax in CD1 mouse liver at 30 mg/kg, ip by LC-MS/MS analysis; assay type: ADME, organism-based; design: dose 30 mg/kg, route intraperitoneal; conditions: in vivo
Liver [24] = experiment: Tmax in CD1 mouse liver at 30 mg/kg, ip by LC-MS/MS analysis; assay type: ADME, organism-based; conditions: in vivo
Liver [25] = experiment: AUClast in CD1 mouse liver at 30 mg/kg, ip by LC-MS/MS analysis; assay type: ADME, organism-based; conditions: in vivo
Liver [26] = experiment: Apparent volume of distribution during terminal phase in CD1 mouse liver at 30 mg/kg, ip by LC-MS/MS analysis; assay type: ADME, organism-based; conditions: in vivo
Liver [27] = experiment: Apparent clearance in CD1 mouse liver at 30 mg/kg, ip by LC-MS/MS analysis; assay type: ADME, organism-based; conditions: in vivo
Mus musculus = experiment: In vivo inhibition of PDK in DIO C57BL/6J mouse assessed as increase in PDC activity in liver at 40 to 45 mg/kg/day administered through mini osmotic pump for 2 weeks relative to control; assay type: functional

SMILES: NC(=O)CC[C@H](N)C(=O)N1CCC(Nc2ccc3c(c2)CN(S(=O)(=O)c2ccc(O)cc2O)C3)CC1
- IC50 [1]: 72 nM

SMILES: NC(=O)C[C@H](N)C(=O)N1CC[C@H](Nc2ccc3c(c2)CN(S(=O)(=O)c2ccc(O)cc2O)C3)C1
- IC50 [1]: 156 nM

SMILES: O=C(O)CCCCC(=O)N1CCC(Nc2ccc3c(c2)CN(S(=O)(=O)c2ccc(O)cc2O)C3)CC1
- IC50 [1]: 1610 nM

SMILES: O=S(=O)(c1ccc(O)cc1O)N1Cc2ccc(NC3CCNCC3)cc2C1
- IC50 [1]: 195 nM
- Kd [2]: 110 nM

SMILES: O=C(O)c1ccccc1C(=O)N1CCC(Nc2ccc3c(c2)CN(S(=O)(=O)c2ccc(O)cc2O)C3)CC1
- IC50 [1]: 565 nM

SMILES: NC(=O)C[C@H](N)C(=O)N1CCN(c2ccc3c(c2)CN(S(=O)(=O)c2ccc(O)cc2O)C3)CC1
- IC50 [1]: 767 nM

SMILES: O=C(C1C[C@@H](O)C(O)[C@H](O)C1)N1CCC(Nc2ccc3c(c2)CN(S(=O)(=O)c2ccc(O)cc2O)C3)CC1 (stereo partly specified)
- IC50 [1]: 432 nM

SMILES: O=S(=O)(c1ccc(O)cc1O)N1Cc2ccc(N3CCCCC3)cc2C1
- IC50 [1]: 4370 nM

SMILES: NC(=O)C[C@H](N)C(=O)NCCNc1ccc2c(c1)CN(S(=O)(=O)c1ccc(O)cc1O)C2
- IC50 [1]: 357 nM

SMILES: NC(=O)C[C@H](N)C(=O)N1CCC(Nc2ccc3c(c2)CN(S(=O)(=O)c2ccc(O)cc2O)C3)CC1
- IC50 [1]: 58 nM
- IC50 [3]: 2540 nM
- IC50 [4]: 45800 nM
- IC50 [5]: 284 nM
- IC50 [6]: 2060 nM
- IC50 [7]: 81 nM
- IC50 [8]: 1710 nM
- IC50 [9]: 416 nM
- Kd [2]: 22 nM
- beta t1/2 (Plasma [10]): 288 min
- Cmax (Plasma [11]): 5443 ng/mL
- Tmax [12]: 10 min
- AUClast (Plasma [13]): 234088 ng·min/mL
- Vz/F (Plasma [14]): 1289 mL
- CL/F [15]: 3.11 mL/min
- half-life [16]: 324 min
- Cmax [17]: 2420 ng/g
- Tmax [18]: 10 min
- AUClast [19]: 83083 ng·min/g
- CL/F [20]: 8.64 g/min
- Vz/F [21]: 4043 g
- beta t1/2 (Liver [22]): 303 min
- Cmax (Liver [23]): 18767 ng/g
- Tmax (Liver [24]): 30 min
- AUClast (Liver [25]): 2682301 ng·min/g
- Vz/F (Liver [26]): 116 g
- CL/F (Liver [27]): 0.266 g/min
- fold change (FC) (Mus musculus): 6

SMILES: NC(=O)C[C@H](N)C(=O)N1CC[C@@H](Nc2ccc3c(c2)CN(S(=O)(=O)c2ccc(O)cc2O)C3)C1
- IC50 [1]: 221 nM

SMILES: N[C@@H](CO)C(=O)N1CCC(Nc2ccc3c(c2)CN(S(=O)(=O)c2ccc(O)cc2O)C3)CC1
- IC50 [1]: 68 nM

SMILES: Nc1ccc2c(c1)CN(S(=O)(=O)c1ccc(O)cc1O)C2
- IC50 [1]: 1180 nM
